Reference: patent publication US9210927B2, “Pesticidal compositions and processes related thereto” (Dow AgroSciences LLC, priority 2013, dated 2015)

Legend:
Format in all cases: in vivo
[1] = system: CEW (Helicoverpa zea); assay: Bioassays on Corn Earworm (CEW), 128-well diet tray assay; conditions: Helicoverpa zea, 168 h; percent mortality, second instar larvae, 50 μg/cm^2 on artificial diet, five to seven days, 25° C.; read-out: CEW Rating
In short: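 Percent larval mortality, averaged across eight wells, read after five to seven days at 25 °C under 14:10 light-dark. Each well held one to five second-instar larvae on diet surface-dosed at 50 μg/cm^2 (compound applied in acetone-water 90:10, then dried).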

[2] = system: GPA (Myzus persicae); assay: Bioassays on Green Peach Aphid (GPA), foliar spray on cabbage seedlings; conditions: 72 h, corrected % control (Abbott), 200 ppm spray on cabbage seedlings, three days, read-out: GPA Rating
Method: Bioassays on Green Peach Aphid (“GPA”) (Myzus persicae) Certain molecules disclosed in this document were tested against GPA using procedures described in the following example. In the reporting of the results, the “GPA Rating Table” was used (See Table Section). Cabbage seedlings grown in 3-inch pots, with 2-3 small (3-5 cm) true leaves, were used as test substrate. The seedlings were infested with 20-50 GPA (wingless adult and nymph stages) one day prior to chemical application. Four pots with individual seedlings were used for each treatment. Test compounds (2 mg) were dissolved in 2 mL of acetone/MeOH (1:1) solvent, forming stock solutions of 1000 ppm test compound. The stock solutions were diluted 5× with 0.025% Tween 20 in H2O to obtain the solution at 200 ppm test compound. A hand-held aspirator-type sprayer was used for spraying a solution to both sides of […] leaves until runoff. Reference plants (solvent check) were sprayed with the diluent only containing 20% by volume of acetone/MeOH (1:1) solvent. Treated plants were held in a holding room for three days at approximately 25° C. and ambient relative humidity (RH) prior to grading. Evaluation was conducted by counting the number of live aphids per plant under a microscope. Percent Control was measured by using Abbott's correction formula (W. S. Abbott, “A Method of Computing the Effectiveness of an Insecticide” J. Econ. Entomol. 18 (1925), pp. 265-267) as follows. Corrected % Control=100*(X−Y)/X • where • X=No. of live aphids on solvent check plants and • Y=No. of live aphids on treated plants The results are indicated in the table entitled “Table 3: Assay Results” (See Table Section).

[3] = system: BAW (Spodoptera exigua); assay: Bioassays on Beet Armyworm (BAW), 128-well diet tray assay; conditions: Spodoptera exigua, 168 h, read-out: BAW Rating
In short: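 Diet surface dosed at 50 μg/cm^2 (acetone-water 90:10 vehicle), dried, then infested with second-instar larvae, one to five per well. After five to seven days at 25° C. under 14:10 light-dark, mortality per well was scored and averaged over eight wells.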

SMILES	pest or weed control at 50 µg/cm2 [1]	pest or weed control at 200 ppm [2]	pest or weed control at 50 µg/cm2 [3]
Cc1cc(/C=C/C(c2cc(Cl)cc(Cl)c2)C(F)(F)F)ccc1C(=O)NCC(F)(F)F (stereo not drawn) [AC6, (E)-4-(3-(3,5-Dichlorophenyl)-4,4,4-trifluorobut-1-enyl)-2-methyl-N-(2,2,2-trifluoroethyl)benzamide]	50 to 100%	0 to 80%	–
Cc1cc(/C=C/C(c2cc(Cl)cc(Cl)c2)C(F)(F)F)ccc1C(=O)NCc1ccc(Cl)nc1 (stereo not drawn) [AC7]	50 to 100%	0 to 80%	50 to 100%
Cc1cc(/C=C/C(c2cc(Cl)cc(Cl)c2)C(F)(F)F)ccc1C(=O)N1CCCC1=O (stereo not drawn) [AC8]	0 to 50%	0 to 80%	–
Cc1cc(/C=C/C(c2cc(Cl)cc(Cl)c2)C(F)(F)F)ccc1C(=O)NCc1ccccc1F (stereo not drawn) [AC9]	50 to 100%	0 to 80%	50 to 100%
Cc1cc(/C=C/C(c2cc(Cl)cc(Cl)c2)C(F)(F)F)ccc1C(=O)NC1CSC1 (stereo not drawn) [AC10]	50 to 100%	0 to 80%	50 to 100%
Cc1cc(/C=C/C(c2cc(Cl)cc(Cl)c2)C(F)(F)F)ccc1C(=O)NC1CS(=O)(=O)C1 (stereo not drawn) [AC13]	50 to 100%	0 to 80%	50 to 100%
Cc1cc(/C=C/C(c2cc(Cl)cc(Cl)c2)C(F)(F)F)ccc1C(=O)NCc1cnc(Cl)s1 (stereo not drawn) [AC15]	50 to 100%	0 to 80%	50 to 100%
Cc1cc(/C=C/C(c2cc(Cl)cc(Cl)c2)C(F)(F)F)ccc1C(=O)NNc1ccccc1F (stereo not drawn) [AC17]	50 to 100%	0 to 80%	50 to 100%
Cc1cc(/C=C/C(c2cc(Cl)cc(Cl)c2)C(F)(F)F)ccc1C(=O)NCc1ncccn1 (stereo not drawn) [AC18]	50 to 100%	0 to 80%	50 to 100%
Cc1cc(/C=C/C(c2cc(Cl)c(Cl)c(Cl)c2)C(F)(F)F)ccc1C(=O)NC1CSC1 (stereo not drawn) [AC23]	50 to 100%	0 to 80%	50 to 100%
Cc1cc(/C=C/C(c2cc(Cl)c(Cl)c(Cl)c2)C(F)(F)F)ccc1C(=O)NCc1cnc(Cl)s1 (stereo not drawn) [AC26]	50 to 100%	0 to 80%	50 to 100%
Cc1cc(/C=C/C(c2cc(Cl)c(Cl)c(Cl)c2)C(F)(F)F)ccc1C(=O)NC(C)(C)c1ccccn1 (stereo not drawn) [AC27]	50 to 100%	0 to 80%	50 to 100%
O=C(NCc1ccc(Cl)nc1)c1ccc(/C=C/C(c2cc(Cl)c(Cl)c(Cl)c2)C(F)(F)F)cc1Cl (stereo not drawn) [AC28]	50 to 100%	0 to 80%	50 to 100%
O=C(NC1CSC1)c1ccc(/C=C/C(c2cc(Cl)c(Cl)c(Cl)c2)C(F)(F)F)cc1Cl (stereo not drawn) [AC29]	50 to 100%	0 to 80%	50 to 100%
O=C(NC1CS(=O)(=O)C1)c1ccc(/C=C/C(c2cc(Cl)c(Cl)c(Cl)c2)C(F)(F)F)cc1Cl (stereo not drawn) [AC30]	50 to 100%	0 to 80%	50 to 100%
O=C(NCc1ccc(Cl)nc1)c1ccc(/C=C/C(c2cc(Cl)c(Cl)c(Cl)c2)C(F)(F)F)cc1Br (stereo not drawn) [AC31]	50 to 100%	0 to 80%	50 to 100%
O=C(NC1CSC1)c1ccc(/C=C/C(c2cc(Cl)c(Cl)c(Cl)c2)C(F)(F)F)cc1Br (stereo not drawn) [AC32]	50 to 100%	0 to 80%	50 to 100%

SMILES	pest or weed control at 50 µg/cm2 [1]	pest or weed control at 200 ppm [2]	pest or weed control at 50 µg/cm2 [3]
O=C(NC1CS(=O)(=O)C1)c1ccc(/C=C/C(c2cc(Cl)c(Cl)c(Cl)c2)C(F)(F)F)cc1Br (stereo not drawn) [AC33]	50 to 100%	0 to 80%	50 to 100%
O=C(NC1CSC1)c1ccc(/C=C/C(c2cc(Cl)c(Cl)c(Cl)c2)C(F)(F)F)cc1C(F)(F)F (stereo not drawn) [AC34]	50 to 100%	0 to 80%	50 to 100%
O=C(NCc1ccc(Cl)nc1)c1ccc(/C=C/C(c2cc(Cl)c(Cl)c(Cl)c2)C(F)(F)F)cc1C(F)(F)F (stereo not drawn) [AC36]	50 to 100%	0 to 80%	50 to 100%
Cc1cc(/C=C/C(c2ccc(Cl)c(Cl)c2)C(F)(F)F)ccc1C(=O)NCc1ccc(Cl)nc1 (stereo not drawn) [AC37]	50 to 100%	0 to 80%	50 to 100%
Cc1cc(/C=C/C(c2cc(Cl)cc(Cl)c2)C(F)(F)F)ccc1C(=O)NCc1cnccn1 (stereo not drawn) [AC43]	50 to 100%	0 to 80%	50 to 100%
Cc1cc(/C=C/C(c2cc(Cl)cc(Cl)c2)C(F)(F)F)ccc1C(=O)NCc1ccc(Cl)cc1 (stereo not drawn) [AC48]	50 to 100%	0 to 80%	50 to 100%
O=C(NCc1ccc(Cl)nc1)c1ccc(/C=C/C(c2cc(Cl)cc(Cl)c2)C(F)(F)F)cc1F (stereo not drawn) [AC49]	50 to 100%	0 to 80%	50 to 100%
Cc1cc(/C=C/C(c2cc(Cl)cc(Cl)c2)C(F)(F)F)ccc1C(=O)NCC(=O)N(C)CC(F)(F)F (stereo not drawn) [AC51]	50 to 100%	0 to 80%	50 to 100%
Cc1cc(/C=C/C(c2cc(Cl)c(F)c(Cl)c2)C(F)(F)F)ccc1C(=O)NC1CCOCC1 (stereo not drawn) [AC52]	50 to 100%	0 to 80%	50 to 100%
Cc1cc(/C=C/C(c2cc(Cl)c(F)c(Cl)c2)C(F)(F)F)ccc1C(=O)NCc1ccc(Cl)cn1 (stereo not drawn) [AC53]	50 to 100%	0 to 80%	50 to 100%
Cc1cc(/C=C/C(c2cc(Cl)c(F)c(Cl)c2)C(F)(F)F)ccc1C(=O)NCc1ccnc(Cl)c1 (stereo not drawn) [AC54]	50 to 100%	0 to 80%	50 to 100%
CC(C)(C)OC(=O)CNC(=O)c1ccc(/C=C/C(c2cc(Cl)c(Cl)c(Cl)c2)C(F)(F)F)cc1Br (stereo not drawn) [AC58]	50 to 100%	0 to 80%	50 to 100%
Cc1cc(/C=C/C(c2cc(Cl)cc(Cl)c2)C(F)(F)F)ccc1C(=O)Nc1ccc(Cl)nc1 (stereo not drawn) [AC59]	50 to 100%	0 to 80%	50 to 100%
O=C(NC1CSC1)c1ccc(/C=C/C(c2cc(Cl)cc(Cl)c2)C(F)(F)F)cc1F (stereo not drawn) [AC61]	50 to 100%	0 to 80%	50 to 100%
O=C(NCc1ccc(Cl)nc1)c1ccc(/C=C/C(c2cc(Cl)c(F)c(Cl)c2)C(F)(F)F)cc1Br (stereo not drawn) [AC63]	50 to 100%	0 to 80%	50 to 100%
Cc1cc(/C=C\C(c2cc(Cl)cc(Cl)c2)C(F)(F)F)ccc1C(=O)NCc1ccc(Cl)nc1 (stereo not drawn) [AC94]	0 to 50%	0 to 80%	–
